Source: US11103525B2, “Idoxuridine and its analogs as neuroprotectans for the treatment of parkinsonism” (priority 2017, dated 2021)

How the values were obtained:
GPR37-tGFP = GPR37-tGFP translocation assay; assay type: cell-based, mouse; settings: for effect in GPR37-translocation assay (hit rating): tested at 2, 10 and 20 μM
Method: FIG. 2. Schematic representation of the rationale and the basic steps of GPR37-translocation assay. A. GPR37 is prone to misfolding and aggregation, which, in metabolically-active cells, are followed by degradation and results in low levels of functional receptor in the plasma membrane. The primary targets of the screening assay are compounds that can directly or indirectly facilitate maturation and trafficking of GPR37 to the plasma membrane. B. N2a cells stably expressing GPR37-tGFP are seeded in poly-D-Lysine coated 384 well plates at density 5000 cells/well. 24 h later cells are treated with compounds, including positive and negative controls, and incubated for 72 h. Then cells are fixed with 4% PFA and additionally stained with Hoechst 33342 (nuclei) and HCS CellMask™ red (cell body) to enable segmentation of the plasma membrane. Acquisition of fluorescence images is done using ImageXpress high content screening system (Molecular Devices). Quantification of GPR37-tGFP levels in the plasma membrane is done using CellProfiler software. FIG. 3. Schematic representation of Image analysis pipeline and final outcome data. Segmentation of the plasma membrane is performed in five main steps: 1) identification of nuclei (primary objects) using nuclear stain, 2) determination of cell borders using primary objects as seeds and growing these objects in respect of tGFP and HCS CellMask™ fluorescence intensity (secondary objects), 3) shrinking and expending secondary objects, 4) subtraction of shrunken cells from expended cells which results in membrane segmentation (tertiary objects), 5) tGFP fluorescence intensity is calculated within tertiary objects. Z′ factor is a quality measure of an assay which describes how well separated positive and negative controls are. Assays having Z′ factors above 0.5 are considered good assays. N2a cells stably expressing GPR37-tGFP were seeded in 384 BDFalcon BioCoat Poly-D-Lysine coated plates at a density of 5000 cells/well, and 50 μL incubation volume of maintenance medium. Cells were incubated at 37° C., 5% CO2 using humidity chamber. 24 h later, the cells were treated with 10 μL of compounds of desired concentration, including positive (2 mM dibutyryl-cAMP+0.5 mM 4-phenylbutyrate) and negative controls (0.1% DMSO), and incubated for 72 h. Cells were fixed with 4% PFA by adding 20 μL of 16% PFA directly to cell medium, incubating for 20 min and washing with PBS-Tween20 (0.05%). Directly after fixation cells were stained for nuclei with Hoechst 33342 (0.01 mg/mL) and for cell bodies with HCS CellMask™ Red stain (Thermo Fisher Scientific Inc.) (0.001 mg/mL) by incubating with the dyes for 30 min in PBS-Tween20 (0.05%) followed by washing with PBS. All the additional steps, including cell seeding were performed using Multidrop Combi dispenser (Thermo Scientific) and washing steps were done by means of HydroSpeed™ plate washer (Tecan). The images were captured using ImageXpress Micro XLS Widefield High-Content Analysis System (Molecular Devices, LLC) in 3 fluorescent channels (ImageXpress filters are listed, followed by excitation/emission in nm): DAPI (387/447), FITC (482/536) and TexasRed (562/624). Binning 2 was applied during the acquisition and digital confocal option was used for FITC and TexasRed filters. Typically, 5 images were taken per well at magnification 20× and stored as 16 bit, gray scale tif files along with metadata in Oracle database, for further analysis. Quantification of GPR37-tGFP levels in the plasma membrane was done using CellProfiler™ software. CellProfiler™ is an open-source cell image analysis software available at www.cellprofiler.org. An image analysis pipeline used for membrane segmentation consisted of 5 main steps (FIG. 3): 1) segmentation of nuclei (primary objects); 2) segmentation of cell bodies (secondary objects); 3) shrinking and expending cell bodies; 4) subtraction of shrank cells from expanded cells (tertiary objects—membranes); 5) calculating tGFP fluorescence in the membranes. […]

hepatic aldehyde oxidase = target: T1, hepatic aldehyde oxidase (Homo sapiens, UniProt Q06278); settings: cited from earlier work
T1 sequence (Q06278 1-1338): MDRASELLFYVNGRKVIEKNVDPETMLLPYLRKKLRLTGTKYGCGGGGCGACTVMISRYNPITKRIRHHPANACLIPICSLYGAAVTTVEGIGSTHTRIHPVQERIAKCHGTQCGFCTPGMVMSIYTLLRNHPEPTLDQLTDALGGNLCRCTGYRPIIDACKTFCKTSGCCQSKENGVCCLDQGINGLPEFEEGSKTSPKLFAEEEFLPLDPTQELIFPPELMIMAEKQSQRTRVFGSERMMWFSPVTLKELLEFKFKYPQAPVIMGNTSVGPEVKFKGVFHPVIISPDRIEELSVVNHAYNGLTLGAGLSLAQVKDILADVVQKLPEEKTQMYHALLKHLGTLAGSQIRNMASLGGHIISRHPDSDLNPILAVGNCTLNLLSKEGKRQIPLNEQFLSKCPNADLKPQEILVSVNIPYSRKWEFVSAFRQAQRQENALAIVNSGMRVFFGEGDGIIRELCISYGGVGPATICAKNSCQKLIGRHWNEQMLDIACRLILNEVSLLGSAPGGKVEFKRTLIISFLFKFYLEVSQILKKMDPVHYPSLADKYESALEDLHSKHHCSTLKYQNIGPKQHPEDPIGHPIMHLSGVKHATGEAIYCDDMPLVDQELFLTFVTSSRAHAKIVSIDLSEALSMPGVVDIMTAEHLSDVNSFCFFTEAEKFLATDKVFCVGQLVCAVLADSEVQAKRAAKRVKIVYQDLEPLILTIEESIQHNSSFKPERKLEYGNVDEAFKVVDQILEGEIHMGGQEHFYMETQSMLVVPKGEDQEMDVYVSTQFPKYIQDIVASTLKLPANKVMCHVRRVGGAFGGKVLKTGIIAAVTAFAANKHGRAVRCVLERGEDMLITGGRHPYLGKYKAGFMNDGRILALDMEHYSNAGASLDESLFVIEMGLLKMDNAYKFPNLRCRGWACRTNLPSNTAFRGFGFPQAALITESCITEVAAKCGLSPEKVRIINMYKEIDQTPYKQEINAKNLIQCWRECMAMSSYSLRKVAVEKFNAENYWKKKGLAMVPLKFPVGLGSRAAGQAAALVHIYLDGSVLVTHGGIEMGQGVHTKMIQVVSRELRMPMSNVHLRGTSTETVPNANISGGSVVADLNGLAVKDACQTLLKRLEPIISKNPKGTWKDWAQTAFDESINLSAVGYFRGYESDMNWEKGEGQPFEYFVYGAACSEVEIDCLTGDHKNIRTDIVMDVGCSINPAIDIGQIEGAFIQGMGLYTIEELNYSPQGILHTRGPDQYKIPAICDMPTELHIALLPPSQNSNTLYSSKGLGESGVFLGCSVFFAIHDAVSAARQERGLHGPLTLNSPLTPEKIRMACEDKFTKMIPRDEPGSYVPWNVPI

[1] = compared with idoxuridine; cited from earlier work

## C#Cc1cn([C@H]2C[C@H](O)[C@@H](CO)O2)c(=O)[nH]c1=O [Compound 4, 5-ethynyl-1-((2R,4S,5R)-4-hydroxy-5-(hydroxymethyl)-tetrahydrofuran-2-yl)pyrimidine-2,4(1H,3H)-dione]
GPR37-tGFP
  effect in GPR37-translocation assay (hit rating): slight positive effect

## O=c1ncc(I)cn1[C@H]1C[C@H](O)[C@@H](CO)O1 [ropidoxuridine, 1-((2R,4S,5R)-4-hydroxy-5-(hydroxymethyl)tetrahydrofuran-2-yl)-5-iodopyrimidin-2(1H)-one]
Hepatic aldehyde oxidase
  metabolic conversion to idoxuridine: efficiently converted to idoxuridine
[1]
  stability in vivo: more stable
  toxicity in vivo: less toxic

## O=c1[nH]c(=O)n([C@H]2C[C@H](O)[C@@H](CO)O2)cc1O [Compound 2, 5-hydroxy-1-((2R,4S,5R)-4-hydroxy-5-(hydroxymethyl)tetrahydrofuran-2-yl)pyrimidine-2,4(1H,3H)-dione]
GPR37-tGFP
  effect in GPR37-translocation assay (hit rating): slight positive effect

## CCCC(=O)Nc1ncnc2c1ncn2[C@@H]1O[C@@H]2COP(=O)(O)O[C@H]2[C@H]1OC(=O)CCC [dibutyryl-cAMP]
GPR37-tGFP; without starvation, used as positive control
  increase of GPR37-tGFP in the plasma membrane: remarkable increase

## Nc1cccc(-c2cn([C@H]3C[C@H](O)[C@@H](CO)O3)c(=O)[nH]c2=O)c1 [Compound 17, 5-(3-aminophenyl)-1-((2R,4S,5R)-4-hydroxy-5-(hydroxy-methyl)tetrahydrofuran-2-yl)pyrimidine-2,4(1H,3H)-dione]
GPR37-tGFP
  effect in GPR37-translocation assay (hit rating): strong hit
